Results on 24 compounds are retold here after US8134015B2, “Compound inhibiting in vivo phosphorous transport and medicine containing the same” (Kyowa Hakko Kirin Co., Ltd., priority 2003, dated 2012).

In this assay the target is T1, rat NaPi-2b (Rattus norvegicus, UniProt Q9JJ09).
T1 construct: expressed in transfected cells; host or cells: Xenopus oocytes injected with cRNA
T1 sequence (Q9JJ09 1-695): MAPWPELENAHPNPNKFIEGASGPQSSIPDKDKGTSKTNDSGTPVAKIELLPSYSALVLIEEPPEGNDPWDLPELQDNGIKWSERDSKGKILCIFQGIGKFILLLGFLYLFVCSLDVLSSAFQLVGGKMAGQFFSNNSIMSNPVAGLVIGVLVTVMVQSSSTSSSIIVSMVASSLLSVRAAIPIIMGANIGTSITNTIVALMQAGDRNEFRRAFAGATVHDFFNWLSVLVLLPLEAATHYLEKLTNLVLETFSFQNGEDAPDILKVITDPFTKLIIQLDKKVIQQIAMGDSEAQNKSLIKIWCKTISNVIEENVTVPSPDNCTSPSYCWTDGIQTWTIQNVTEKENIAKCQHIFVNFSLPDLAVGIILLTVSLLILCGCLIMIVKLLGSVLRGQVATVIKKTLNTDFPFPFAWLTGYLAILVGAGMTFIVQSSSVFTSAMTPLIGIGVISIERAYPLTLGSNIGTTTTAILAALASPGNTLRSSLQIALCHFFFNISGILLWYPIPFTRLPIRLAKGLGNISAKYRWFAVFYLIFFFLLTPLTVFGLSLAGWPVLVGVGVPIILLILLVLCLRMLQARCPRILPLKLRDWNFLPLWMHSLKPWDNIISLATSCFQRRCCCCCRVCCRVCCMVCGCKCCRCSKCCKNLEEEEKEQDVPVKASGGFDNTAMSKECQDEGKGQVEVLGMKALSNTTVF
Kind of assay: Sodium-dependent phosphate uptake of Xenopus oocytes which expressed NaPi-2b (32P). Conditions: for IC50: Xenopus oocytes expressing rat NaPi-2b, 32P radioactive phosphorus, read-out: IC50 (phosphate uptake inhibitory activity); for inhibition at 300 µM: phosphate uptake, oocytes expressing rat NaPi-2b, determined from inhibition curve. The format is cell-based. The procedure, abridged: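 Rat NaPi-2b cloned from small-intestine cDNA; cRNA injected into Xenopus oocytes, expression for 2 days. Phosphate uptake inhibition measured with 32P; percent inhibition at 300 μM and 100 μM read from the same inhibition curve.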

What is called IC50 is the point on the concentration scale where inhibition reaches its midpoint. Consider `O=C(Nc1ccc(N2CCCC2)cc1C(=O)N/N=C/c1ccc(Cl)c(C(F)(F)F)c1)c1cccc(CSCCO)c1` [Compound 920, N-[2-(4-Chloro-3-trifluoromethyl-benzylidene-hydrazinocarbonyl)-4-pyrrolidin-1-yl-phenyl]-3-(2-hydroxy-ethylsulfanylmethyl)-benzamide], for which the IC50 is less than 1 µM.
As to `COc1ccc(/C=N/NC(=O)c2cc(N3CCCC3)ccc2NC(=O)c2cccc(CSCCO)c2)cc1` [Compound 921, 3-(2-Hydroxy-ethylsulfanylmethyl)-N-[2-(4-methoxy-benzylidene-hydrazinocarbonyl)-4-pyrrolidin-1-yl-phenyl]-benzamide], the IC50 worked out at 1.22 µM.
Still for that read-out and setting: the result for `CCN(CC)CCN(C)Cc1cccc(C(=O)Nc2ccc(N3CCCN(C)CC3)cc2C(=O)N/N=C/c2ccc(Cl)c(C(F)(F)F)c2)c1` [Compound 922, N-[2-(4-Chloro-3-trifluoromethyl-benzylidene-hydrazinocarbonyl)-4-(4-methyl-[1,4]diazepan-1-yl)-phenyl]-3-{[(2-diethylamino-ethyl)-methyl-amino]-methyl}-benzamide] reads 2.89 µM; that for `O=C(Nc1ccc(N2CCN(CCO)CC2)cc1C(=O)N/N=C/c1ccc(Cl)c(C(F)(F)F)c1)c1cccc(CSCCO)c1` [Compound 923, N-{2-(4-Chloro-3-trifluoromethyl-benzylidene-hydrazinocarbonyl)-4-[4-(2-hydroxy-ethyl)-piperazin-1-yl]-phenyl}-3-(2-hydroxy-ethylsulfanylmethyl)-benzamide], 18.8 µM.
Still for that read-out and setting: the result for `CCN(CC)CCN(C)Cc1cccc(C(=O)Nc2ccc(N3CCN(CCO)CC3)cc2C(=O)N/N=C/c2ccc(Cl)c(C(F)(F)F)c2)c1` [Compound 924, N-{2-(4-Chloro-3-trifluoromethyl-benzylidene-hydrazinocarbonyl)-4-[4-(2-hydroxy-ethyl)-piperazin-1-yl]-phenyl}-3-{[(2-diethylamino-ethyl)-methyl-amino]-methyl}-benzamide] reads 40.2 µM.
Regarding `O=C(Nc1ccc(N2CCCC(C(=O)O)C2)cc1C(=O)N/N=C/c1ccc(Cl)c(C(F)(F)F)c1)c1cccc(CSCCO)c1` (stereo not drawn) [Compound 925, 1-{3-(4-Chloro-3-trifluoromethyl-benzylidene-hydrazinocarbonyl)-4-[3-(2-hydroxy-ethylsulfanylmethyl)-benzoylamino]-phenyl}-piperidine-3-carboxylic acid], the concentration for half-maximal inhibition (IC50) is 25.5 µM.
On the same count and under the same terms, to `Cc1ccc(/C=N/NC(=O)c2cc(N3CCSCC3)ccc2NC(=O)c2cccc(CSCCO)c2)cc1C` [Compound 926, N-[2-(3,4-Dimethyl-benzylidene-hydrazinocarbonyl)-4-thiomorpholin-4-yl-phenyl]-3-(2-hydroxy-ethylsulfanylmethyl)-benzamide] belongs less than 1 µM; to `O=C(Nc1ccc(N2CCSCC2)cc1C(=O)N/N=C/c1ccc(Cl)c(C(F)(F)F)c1)c1cccc(CSCCO)c1` [Compound 927, N-[2-(4-Chloro-3-trifluoromethyl-benzylidene-hydrazinocarbonyl)-4-thiomorpholin-4-yl-phenyl]-3-(2-hydroxy-ethylsulfanylmethyl)-benzamide], less than 1 µM; to `COc1ccc(/C=N/NC(=O)c2cc(N3CCSCC3)ccc2NC(=O)c2cccc(CSCCO)c2)cc1` [Compound 928, 3-(2-Hydroxy-ethylsulfanylmethyl)-N-[2-(4-methoxy-benzylidene-hydrazinocarbonyl)-4-thiomorpholin-4-yl-phenyl]-benzamide], less than 1 µM.
On the same count and under the same terms, to `CCN(CC)CCN(C)Cc1cccc(C(=O)Nc2ccc(N3CCSCC3)cc2C(=O)N/N=C/c2ccc(Cl)c(C(F)(F)F)c2)c1` [Compound 929, N-[2-(4-Chloro-3-trifluoromethyl-benzylidene-hydrazinocarbonyl)-4-thiomorpholin-4-yl-phenyl]-3-{[(2-diethylamino-ethyl)-methyl-amino]-methyl}-benzamide] belongs less than 1 µM.
The inhibition is the share of the control response that was lost under treatment. Compound `COc1ccc(/C=N/NC(=O)c2cc(Br)sc2NC(=O)c2cccc(CN(C)C)c2)cc1` [Compound 930, N-[5-Bromo-3-(4-methoxy-benzylidene-hydrazinocarbonyl)-thiophen-2-yl]-3-dimethylaminomethyl-benzamide] yielded an inhibition at 300 µM of 40.2%.
Still for that read-out and setting: the result for `CCN(CC)CCN(C)Cc1cccc(C(=O)Nc2ccc(N3CCCN(C)CC3)cc2C(=O)N/N=C/c2ccc(OC)cc2)c1` [Compound 931, 3-{[(2-Diethylamino-ethyl)-methyl-amino]-methyl}-N-[2-(4-methoxy-benzylidene-hydrazinocarbonyl)-4-(4-methyl-[1,4]diazepan-1-yl)-phenyl]-benzamide] reads 31.2%; that for `CN1CCCN(c2ccc3nc(-c4cccc(CSCCO)c4)n(/N=C/c4ccc(Cl)c(C(F)(F)F)c4)c(=O)c3c2)CC1` [Compound 932, 3-[(4-Chloro-3-trifluoromethyl-benzylidene)-amino]-2-[3-(2-hydroxy-ethylsulfanylmethyl)-phenyl]-6-(4-methyl-[1,4]diazepan-1-yl)-3 H-quinazolin-4-one], 36.1%.
For the compound `CCN(CC)CCN(C)Cc1cccc(-c2nc3ccc(N4CCCN(C)CC4)cc3c(=O)n2/N=C/c2ccc(OC)cc2)c1` [Compound 933, 2-(3-{[(2-Diethylamino-ethyl)-methyl-amino]-methyl}-phenyl)-3-[(4-methoxy-benzylidene)-amino]-6-(4-methyl-[1,4]diazepan-1-yl)-3H-quinazolin-4-one], the inhibition at 300 µM was determined as 37.6%.
Same read-out and setting: to `Cc1ccc(/C=N/NC(=O)c2cc(N3CCCC(C(=O)O)C3)ccc2NC(=O)c2cccc(CSCCO)c2)cc1C` (stereo not drawn) [Compound 934, 1-{3-(3,4-Dimethyl-benzylidene-hydrazinocarbonyl)-4-[3-(2-hydroxy-ethylsulfanylmethyl)-benzoylamino]-phenyl}-piperidine-3-carboxylic acid] belongs 39.3%.
On to `COc1ccc(C(=O)Nc2ccc(N3CCCCC3)cc2C(=O)N/N=C/c2ncc[nH]2)cc1OC` [Compound 937, N-[2-(1H-Imidazol-2-ylmethylene-hydrazinocarbonyl)-4-piperidin-1-yl-phenyl]-3,4-dimethoxy-benzamide], for which the IC50 came out at 137 µM.
On the same count and under the same terms, to `COc1cc(/C=N/NC(=O)c2cc(N3CCCCC3)ccc2NC(=O)c2ccc(OC)c(OC)c2)ccc1O` [Compound 938, N-[2-(4-Hydroxy-3-methoxy-benzylidene-hydrazinocarbonyl)-4-piperidin-1-yl-phenyl]-3,4-dimethoxy-benzamide] belongs 1.41 µM; to `COc1ccc(C(=O)Nc2ccc(N3CCOCC3)cc2C(=O)N/N=C/c2ccc(C)c(C)c2)cc1OC` [Compound 939, N-[2-(3,4-Dimethyl-benzylidene-hydrazinocarbonyl)-4-morpholin-4-yl-phenyl]-3,4-dimethoxy-benzamide], less than 3 µM; to `COc1cc(/C=N/NC(=O)c2cc(N3CCOCC3)ccc2NC(=O)c2ccc(OC)c(OC)c2)ccc1O` [Compound 940, N-[2-(4-Hydroxy-3-methoxy-benzylidene-hydrazinocarbonyl)-4-morpholin-4-yl-phenyl]-3,4-dimethoxy-benzamide], 30.6 µM.
For `COc1ccc(/C=N/NC(=O)c2cc(N3CCOCC3)ccc2NC(=O)c2ccc(OC)c(OC)c2)cc1` [Compound 941, 3,4-Dimethoxy-N-[2-(4-methoxy-benzylidene-hydrazinocarbonyl)-4-morpholin-4-yl-phenyl]-benzamide], the half-inhibitory concentration (IC50) turned out to be 8.72 µM.
On the same count and under the same terms, the result for `CC(O)CN(Cc1cccc(C(=O)Nc2ccc(N3CCCCC3)cc2C(=O)NN=Cc2ccc(Cl)c(C(F)(F)F)c2)c1)CC(C)O` (stereo not drawn) [Compound 942, 3-{[Bis-(2-hydroxy-propyl)-amino]-methyl}-N-[2-(4-chloro-3-trifluoromethyl-benzylidene-hydrazinocarbonyl)-4-piperidin-1-yl-phenyl]-benzamide] reads 0.2 µM.
Still for that read-out and setting: the result for `CCN(CC)CCOc1ccc(NC(=O)c2cccc(CN(CC(C)O)CC(C)O)c2)c(C(=O)NN=Cc2ccc(C)c(C)c2)c1` (stereo not drawn) [Compound 943, 3-{[Bis-(2-hydroxy-propyl)-amino]-methyl}-N-[4-(2-diethylamino-ethoxy)-2-(3,4-dimethyl-benzylidene-hydrazinocarbonyl)-phenyl]-benzamide] reads 10.6 µM; that for `Cc1ccc(/C=N/NC(=O)c2cc(N3CCCC3=O)ccc2NC(=O)c2cccc(CN(CC(C)O)CC(C)O)c2)cc1C` (stereo not drawn) [Compound 944, 3-{[Bis-(2-hydroxy-propyl)-amino]-methyl}-N-[2-(3,4-dimethyl-benzylidene-hydrazinocarbonyl)-4-(2-oxo-pyrrolidin-1-yl)-phenyl]-benzamide], 12 µM; that for `CC(O)CN(Cc1cccc(C(=O)Nc2ccc(N3CCCC3=O)cc2C(=O)N/N=C/c2ccc(Cl)c(C(F)(F)F)c2)c1)CC(C)O` (stereo not drawn) [Compound 945, 3-{[Bis-(2-hydroxy-propyl)-amino]-methyl}-N-[2-(4-chloro-3-trifluoromethyl-benzylidene-hydrazinocarbonyl)-4-(2-oxo-pyrrolidin-1-yl)-phenyl]-benzamide], 19.4 µM.
